Results reported in patent EP2814319B1, “ANTIMICROBIAL COMPOSITION CONTAINING PHOTOCHEMICALLY STABLE SILVER COMPLEXES” (NM Tech Nanomaterials and Microdevices Technology Ltd., priority 2012, dated 2013).

Tests used:
[1] = Photochemical stability of aqueous solutions under ambient light exposure; type: physicochemical
Protocol: The observation that, after a 12 month period, in the presence of a cationic surfactant no precipitation and no formation of metallic Silver occur, confirms the relevant role of the cationic surfactants in determining the stabilization in solution of the neutral complex and the role of the ligand L in stabilizing photochemically the Ag^+ ion.
(§1) The neutral complex Ag-L with L = 4-mercaptophenilboronic acid was prepared by adding stoichiometric amounts of 4-mercaptophenylboronic acid to an aqueous solution of a silver salt, such as silver nitrate. […] The aqueous solution of the complex was stabilized by addition of Benzalkonium chloride up to reach a concentration of about 2 x 10^-2 M, which corresponds to the double of its critical micelle concentration.

Solubility in water = type: physicochemical; settings: without surfactant
Protocol: The complex of formula Ag-L can be prepared by adding stoichiometric amounts of 4-mercaptophenylboronic acid to an aqueous solution of a silver salt, such as silver nitrate. […] This complex can be solubilized in aqueous solution by addition of a cationic surfactant.
as §1

[2] = system: Staphylococcus aureus (ATCC- 6538), Pseudomonas aeruginosa (ATCC - 15442); test: Quantitative suspension test for bactericidal activity (UNI EN 1272:2009); type: cell-based
Protocol: The bactericidal activity was tested on freshly prepared aqueous solutions of the neutral Ag-L complex where the ligand L coordinated to the silver ion is 4-mercaptophenilboronic acid .
Additional tests were carried out on aqueous solutions containing the neutral Silver Ag-L complex and different cationic surfactants and, for purpose of comparison, on aqueous solutions containing only the cationic surfactants at the same concentration levels. It is in fact known that the cationic surfactants used for the purposes of the invention are endowed with antimicrobic activity on their own.
The bactericidal activity tests were carried out according to UNI EN 1272:2009 and UNI EN 13697:2001 standards, which make reference to chemical disinfectants and antiseptics, by using the following test organism: Staphylococcus aureus (ATCC- 6538), as representative of Gram-positive bacteria and Pseudomonas aeruginosa (ATCC - 15442), as representative of Gram-negative bacteria.
On such solutions it was in fact observed a maximum reduction of the bacterial count of ca 6-7 log.

[3] = treating burns; decreased from 60%; cited from earlier work
[4] = system: Staphylococcus epidermidis; settings: cited from earlier work

## OB(O)c1ccc([S][Ag])cc1 [AgL]
[1]; aqueous solution stabilized with Benzalkonium chloride about 2 x 10^-2 M, 12 months ambient light exposure
  change in color or composition: did not show any change in color or composition
Solubility in water
  solubility in water: only partly soluble in water
[2]; Staphylococcus aureus, 0.5 h, concentration of the order of 3.3 x 10^-4 M in water, 30 min of contact, read-out: log reduction of bacterial count
  log reduction at 330 µM: 2 to 3

## O=[N+]([O-])[O-].[Ag+] [Silver Nitrate, silver nitrate]
[1]; aqueous solution, comparable conditions (ambient light exposure)
  formation of Ag° precipitate: formation of a black Ag° precipitate after few minutes
[2]; concentration of the order of 3.3 x 10^-4 M in water, 30 min of contact
  log reduction of bacterial count: 2-3 log
[2]; solution of concentration comparable to 3.3 x 10^-4 M
  antimicrobial activity after exposure to ambient light: lose the antimicrobial activity after exposure to ambient light
[3]
  number of deaths that were a result of sepsis: 28%

## [H]/N=C(\N/C(=N/[H])NCCCCCCNC(=N)NC(=N)Nc1ccc(Cl)cc1)Nc1ccc(Cl)cc1 [chlorhexidine]
[4]
  development of resistance: no evidence of resistance
